Results taken from the NIST ThermoML archive (doi:10.1021/je800244q).
Values joined by “and” are separate entries in the source; they are usually repeats but may differ in a detail not shown here. Identical values can stand only once.

Legend:
[1] = molar heat capacity at constant pressure; conditions: 101.33 kPa, Liquid, Small sample (50 mg) DSC
[2] = refractive index (Na D-line) (dimensionless); conditions: 298.15 K; 101.33 kPa; Liquid; Standard Abbe refractometry
[3] = Liquid; for mass density: Vibrating tube method; for speed of sound: Pulse-echo method

CC(O)CC(C)(C)O (centres undefined) [2-methyl-2,4-pentanediol]
[1]
Conditions | molar heat capacity at constant pressure [J/K/mol]
284.16 K | 250.63
288.14 K | 254.33
293.14 K | 258.4
298.16 K | 262.4
303.15 K | 266.42
308.15 K | 270.35
313.15 K | 274.7
318.15 K | 279.12
323.15 K | 283.62
328.15 K | 288.35
333.15 K | 293.21
338.15 K | 298.13
343.15 K | 303.01
348.15 K | 307.95
353.14 K | 314.8
358.16 K | 318.39

Conditions | refractive index
[2] | 1.4258

[3]
Conditions | mass density | speed of sound [m/s]
278.15 K, 101.33 kPa | 932.344 kg/m3 | –
283.15 K, 101.33 kPa | 928.795 kg/m3 | –
288.14 K, 100 kPa | – | 1326.5
288.15 K, 101.33 kPa | 925.238 kg/m3 | 1326.4
291.11 K, 100 kPa | – | 1317.1
292.85 K, 101320 kPa | – | 1675.8
292.86 K, 15200 kPa | – | 1382.2
292.86 K, 30390 kPa | – | 1443.5
292.86 K, 45590 kPa | – | 1499.7
292.86 K, 60790 kPa | – | 1551.7
292.86 K, 75990 kPa | – | 1600.9
292.86 K, 91180 kPa | – | 1646.9
293.14 K, 100 kPa | – | 1310.7
293.15 K, 101.33 kPa | 921.71 kg/m3 and 921.676 kg/m3 | 1310.7
298.15 K, 100 kPa | – | 1295.2
298.15 K, 101.33 kPa | 918.16 kg/m3 and 918.11 kg/m3 | 1295.2
298.15 K, 15200 kPa | – | 1366.7
298.15 K, 30390 kPa | – | 1428.8
298.15 K, 45590 kPa | – | 1485.4
298.15 K, 60790 kPa | – | 1538.1
298.15 K, 75990 kPa | – | 1587.3
298.15 K, 91180 kPa | – | 1634
298.15 K, 101320 kPa | – | 1663.4
301.02 K, 100 kPa | – | 1286.3
303.13 K, 30390 kPa | – | 1414.6
303.14 K, 15200 kPa | – | 1351.4
303.14 K, 45590 kPa | – | 1472.1
303.14 K, 60790 kPa | – | 1525.2
303.14 K, 75990 kPa | – | 1575.1
303.14 K, 91180 kPa | – | 1622.1
303.14 K, 101320 kPa | – | 1651.8
303.15 K, 100 kPa | – | 1279.9
303.15 K, 101.33 kPa | 914.59 kg/m3 | 1279.8
303.16 K, 101.33 kPa | 914.548 kg/m3 | –
308.13 K, 15200 kPa | – | 1336.9
308.13 K, 30390 kPa | – | 1400.8
308.13 K, 45590 kPa | – | 1459.2
308.13 K, 60790 kPa | – | 1513
308.13 K, 75990 kPa | – | 1563.1
308.13 K, 91180 kPa | – | 1610.8
308.13 K, 101320 kPa | – | 1640.8
308.15 K, 100 kPa | – | 1264.7
308.15 K, 101.33 kPa | 910.981 kg/m3 and 911.02 kg/m3 | 1264.7
308.18 K, 100 kPa | – | 1264.6
313.1 K, 15200 kPa | – | 1323
313.1 K, 30390 kPa | – | 1387.6
313.1 K, 45590 kPa | – | 1446.5
313.1 K, 60790 kPa | – | 1501
313.1 K, 75990 kPa | – | 1551.6
313.1 K, 101320 kPa | – | 1629.9
313.11 K, 91180 kPa | – | 1599.6
313.15 K, 101.33 kPa | 907.43 kg/m3 and 907.411 kg/m3 | 1249.6
313.16 K, 100 kPa | – | 1249.6
318.15 K, 101.33 kPa | 903.84 kg/m3 and 903.834 kg/m3 | 1234.7
318.19 K, 100 kPa | – | 1234.6
318.29 K, 15200 kPa | – | 1308.8
318.29 K, 30390 kPa | – | 1374.5
318.29 K, 45590 kPa | – | 1434.2
318.29 K, 60790 kPa | – | 1489.3
318.29 K, 75990 kPa | – | 1539.5
318.29 K, 91180 kPa | – | 1588.5
318.29 K, 101320 kPa | – | 1619.2
323.15 K, 101.33 kPa | 900.247 kg/m3 | –
328.16 K, 101.33 kPa | 896.647 kg/m3 | –
333.16 K, 101.33 kPa | 893.033 kg/m3 | –
338.15 K, 101.33 kPa | 889.4 kg/m3 | –
343.15 K, 101.33 kPa | 885.746 kg/m3 | –
348.15 K, 101.33 kPa | 882.068 kg/m3 | –
353.15 K, 101.33 kPa | 878.362 kg/m3 | –
358.15 K, 101.33 kPa | 874.626 kg/m3 | –
